Test results published in PubChem BioAssay (NCI).
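Tested at 5 concentrations; 48 h exposure; 96-well plates; endpoints linearly interpolated, else capped at highest concentration. Here, GI50 denotes the concentration required for 50% inhibition of growth. TGI denotes the concentration required for complete inhibition of growth.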

How the values were obtained:
Experiment in all cases: NCI-60 cell line screen, 48 h
TK-10 renal = system: TK-10 renal
MALME-3M melanoma = system: MALME-3M melanoma
HOP-92 NSCLC = system: HOP-92 NSCLC
SF-295 CNS = system: SF-295 CNS
SN12C renal = system: SN12C renal
SNB-19 CNS = system: SNB-19 CNS
NCI-H522 lung = system: NCI-H522 lung
OVCAR-8 ovarian = system: OVCAR-8 ovarian
SK-MEL-2 melanoma = system: SK-MEL-2 melanoma
SF-268 CNS = system: SF-268 CNS

Row | Compound | GI50 (TK-10 renal) [nM] | TGI (TK-10 renal) [µM] | GI50 (MALME-3M melanoma) [nM] | TGI (MALME-3M melanoma) [µM] | GI50 (HOP-92 NSCLC) [nM] | TGI (HOP-92 NSCLC) [µM] | GI50 (SF-295 CNS) [nM] | TGI (SF-295 CNS) [µM] | GI50 (SN12C renal) [nM] | TGI (SN12C renal) [µM] | GI50 (SNB-19 CNS) [nM] | TGI (SNB-19 CNS) [µM] | GI50 (NCI-H522 lung) [nM] | TGI (NCI-H522 lung) [µM] | GI50 (OVCAR-8 ovarian) [nM] | TGI (OVCAR-8 ovarian) [µM] | GI50 (SK-MEL-2 melanoma) [nM] | TGI (SK-MEL-2 melanoma) [µM] | GI50 (SF-268 CNS) [µM] | TGI (SF-268 CNS) [µM]
1 | CCn1c(-c2nonc2N)nc2c(C#CC(C)(C)O)ncc(OC[C@H]3CCCNC3)c21 | 2030 | 42.6 | 13400 | 30.1 | 9730 | 36.8 | 794 | 22 | 12700 | 51.1 | 15100 | 42.8 | 12200 | 33.2 | 16100 | 82.2 | 7570 | 23 | 16.1 | 37.4
2 | Oc1c(Cl)cc(Cl)cc1C(c1cc(Cl)cc(Cl)c1O)C(Cl)(Cl)Cl | 4260 | 16 | 2800 | 7.2 | 1520 | 5.94 | 1350 | 3.53 | 1780 | 13.7 | 3230 | 15.8 | 964 | 26.7 | 3120 | 15.7 | 2720 | 12 | 2.34 | 13.8
3 | CN(Cc1cc(Br)cc(Br)c1O)Cc1c(O)ccc2ccccc12 |  | 36.4 |  | 42.9 |  | 39.4 |  | 47.5 |  | 32 |  | 38.9 |  | 74.5 |  | 60 |  | 35.6 |  | 74.5
4 | CCCCCCCCCC(=O)OCC1OC(n2cc(F)c(=O)[nH]c2=O)C(NC(=O)OCc2ccccc2)C(OC(=O)CCCCCCCCC)C1O (configuration not stated) |  | > 100 |  | 90.6 |  | 36.3 |  | > 100 |  | 29.6 |  | > 100 |  | 72.2 |  | 80.1 |  | > 100 |  | > 100
5 | C[N+](C)(C)CC(=O)N/N=C(\C(=O)NC1=C(Cl)C(=O)c2ccccc2C1=O)C(C#N)c1nc(-c2ccc([N+](=O)[O-])cc2)cs1 (configuration not stated) |  | 74.6 |  | 3.97 |  | 29 |  | 18.9 |  | 28.2 |  | 39.8 |  | 19.2 |  | 47.6 |  | 30.9 |  | 38.4
6 | CCN(CC)C(=S)SCN1C(=O)c2ccccc2S1(=O)=O | > 52400 | > 100 | > 48700 | 97.6 | > 100000 | > 100 | > 67200 | > 100 | 53700 | > 100 | 78000 | > 100 | 391 | > 45 | > 57900 | > 100 | > 94400 | > 100 | 34.2 | > 100
7 | C=C1CC2CC(O)CC(C1)C2 (configuration not stated) |  | > 100 |  | > 100 |  | > 100 |  | > 100 |  | > 100 |  | > 100 |  | > 100 |  | > 100 |  | > 100 |  | > 100
8 | Clc1ccccc1CNc1c2ccccc2nc2ccccc12 | 3980 | 11 | 2710 | 9.1 | 1910 | 8.45 | 1590 | 7.31 | 1930 | 8.27 | 2280 | 8.96 | 5050 | 21.3 | 2410 | 13.3 | 3260 | 12.5 | 2.95 | 11.4
9 | CC(=O)c1c(CO[N+](=O)[O-])n([O-])c2ccccc2[n+]1=O |  | > 100 |  | > 100 |  | > 100 |  | > 100 |  | > 100 |  | > 100 |  | > 100 |  | > 100 |  | > 100 |  | > 100
10 | COc1ccc2oc(C(=O)O)c3c2c1CCC3CCC(=O)O (configuration not stated) |  | > 100 |  | > 100 |  | > 100 |  | > 100 |  | > 100 |  | > 100 |  | > 100 |  | > 100 |  | > 100 |  | > 100
11 | CC1(C)NCCC[C@]2(C)[C@H]3CC[C@@H]4[C@H]5[C@H](C(=O)/C=C/c6ccccn6)CC[C@]5(CO)CC[C@@]4(C)[C@]3(C)CC[C@@H]12 | 4800 | 24.8 | 1770 | 3.51 | 1990 | 7.73 | 1820 | 3.47 | 3510 | 16.8 | 3920 | 19.8 | 1810 | 4.45 | 2020 | 4.54 | 2490 | 6.91 | 11.2 | 31.2
12 | COc1cc(C2=N/C(=C/c3cccs3)C(=O)O2)cc(OC)c1OC |  | > 100 |  | > 100 |  | > 100 |  | > 100 |  | > 100 |  | > 100 |  | > 100 |  | > 100 |  | > 100 |  | > 100
13 | O=C(N/N=C/c1ccc(O)cc1O)c1cccc(Nc2ccnc(C(F)(F)F)c2)c1 | 2980 | 37.3 | 1320 | 11.5 | 3440 | > 48.2 | 1880 | 45.8 | 2010 | 26.1 | 1010 | > 72.6 | 1270 | 22.6 | 716 | 32.9 | 7390 | 27.1 | 0.811 | 30.4
14 | CC(=[N-])N1CCC[C@@H](Nc2c3ccccc3nc3ccccc23)C1.[Cl][Pt].[NH-]CCC[NH-] | 2760 | > 46.1 | 1490 | 4.51 | 2210 | 8.36 | 384 | > 100 | 21.4 |  | 1490 | > 100 | 25.8 | 0.165 | 1040 | > 100 | 2280 | 7.23 | 3.68 | > 100
15 | Cc1ccc(C(=O)/C(=C\c2ccc([N+](=O)[O-])cc2)S(=O)Cc2ccc(Cl)cc2)cc1 (configuration not stated) | 1860 | 3.89 | 1740 | 3.64 | 1640 | 3.45 | 1800 | 4.28 | 1760 | 3.64 | 1830 | 3.68 | 1720 | 3.18 | 2050 | 5.13 | 1960 | 4.15 | 1.75 | 3.42
16 | CCOC(=O)c1cnc2c(ccc3ncccc32)c1NCCCN(CC)CC |  | > 100 |  | > 100 |  | > 100 |  | > 100 |  |  |  | > 100 |  | > 100 |  |  |  | > 100 |  | > 100
